Measured values published in patent publication US9492471B2, “Methods of treating a disease or disorder associated with Bruton'S Tyrosine Kinase” (Celgene Avilomics Research, Inc., priority 2013, dated 2016).
Like-named read-outs stand apart in the source and are kept apart here.

What was measured:
Assay in all cases: HotSpot kinase profiling
Type in all cases: biochemical
[1] = biological target: T1, HIPK2 (Homo sapiens, UniProt Q9H2X6)
T1 construct: purchased Reaction Biology Corp
Outline: (§1)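 Activity is measured by radiolabel transfer captured on P81 filters after a 2 h room-temperature reaction of kinase, substrate and cofactors. Values are percent inhibition against DMSO.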

[2] = biological target: T2, P38a/MAPK14 (Homo sapiens, UniProt Q16539)
T2 construct: purchased Reaction Biology Corp
T2 sequence (Q16539 whole entry): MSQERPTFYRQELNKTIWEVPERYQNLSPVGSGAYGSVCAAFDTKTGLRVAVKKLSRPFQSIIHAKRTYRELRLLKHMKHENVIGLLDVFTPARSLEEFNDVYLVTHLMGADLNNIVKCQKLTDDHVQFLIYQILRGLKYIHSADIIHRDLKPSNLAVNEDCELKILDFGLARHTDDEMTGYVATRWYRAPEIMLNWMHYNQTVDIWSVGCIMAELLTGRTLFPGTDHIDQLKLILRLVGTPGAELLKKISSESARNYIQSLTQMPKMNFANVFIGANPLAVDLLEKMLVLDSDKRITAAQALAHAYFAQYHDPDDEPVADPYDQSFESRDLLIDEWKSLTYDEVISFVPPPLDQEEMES
Outline: as §1

[3] = biological target: T3, NEK7 (Homo sapiens, UniProt Q8TDX7)
T3 construct: purchased Reaction Biology Corp
T3 sequence (Q8TDX7 whole entry): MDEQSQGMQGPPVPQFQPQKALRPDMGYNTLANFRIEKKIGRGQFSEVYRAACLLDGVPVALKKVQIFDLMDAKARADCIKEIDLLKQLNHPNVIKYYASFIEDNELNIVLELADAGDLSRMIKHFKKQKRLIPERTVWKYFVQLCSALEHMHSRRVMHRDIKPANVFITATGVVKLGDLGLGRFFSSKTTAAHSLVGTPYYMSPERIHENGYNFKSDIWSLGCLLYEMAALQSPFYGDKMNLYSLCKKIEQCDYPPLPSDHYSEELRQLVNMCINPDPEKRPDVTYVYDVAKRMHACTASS
Outline: as §1

[4] = biological target: T4, CLK2 (Homo sapiens, UniProt P49760)
T4 construct: purchased Reaction Biology Corp
T4 sequence (P49760 whole entry): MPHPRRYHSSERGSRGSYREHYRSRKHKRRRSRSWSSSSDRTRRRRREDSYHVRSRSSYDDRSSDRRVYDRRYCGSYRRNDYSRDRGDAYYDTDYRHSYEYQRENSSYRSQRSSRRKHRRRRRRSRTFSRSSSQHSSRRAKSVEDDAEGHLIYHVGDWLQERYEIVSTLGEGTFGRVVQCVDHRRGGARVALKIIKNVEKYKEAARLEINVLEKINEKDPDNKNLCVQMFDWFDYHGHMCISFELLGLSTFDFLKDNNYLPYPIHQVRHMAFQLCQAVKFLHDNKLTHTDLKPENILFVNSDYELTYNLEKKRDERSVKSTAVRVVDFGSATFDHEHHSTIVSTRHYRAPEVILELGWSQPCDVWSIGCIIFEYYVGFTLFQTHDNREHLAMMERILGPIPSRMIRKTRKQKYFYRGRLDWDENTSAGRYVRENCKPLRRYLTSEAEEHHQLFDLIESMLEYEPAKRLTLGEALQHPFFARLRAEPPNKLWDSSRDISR
Outline: as §1

[5] = biological target: T5, PKN1/PRK1 (Homo sapiens, UniProt Q16512)
T5 construct: purchased Reaction Biology Corp
T5 sequence (Q16512 whole entry): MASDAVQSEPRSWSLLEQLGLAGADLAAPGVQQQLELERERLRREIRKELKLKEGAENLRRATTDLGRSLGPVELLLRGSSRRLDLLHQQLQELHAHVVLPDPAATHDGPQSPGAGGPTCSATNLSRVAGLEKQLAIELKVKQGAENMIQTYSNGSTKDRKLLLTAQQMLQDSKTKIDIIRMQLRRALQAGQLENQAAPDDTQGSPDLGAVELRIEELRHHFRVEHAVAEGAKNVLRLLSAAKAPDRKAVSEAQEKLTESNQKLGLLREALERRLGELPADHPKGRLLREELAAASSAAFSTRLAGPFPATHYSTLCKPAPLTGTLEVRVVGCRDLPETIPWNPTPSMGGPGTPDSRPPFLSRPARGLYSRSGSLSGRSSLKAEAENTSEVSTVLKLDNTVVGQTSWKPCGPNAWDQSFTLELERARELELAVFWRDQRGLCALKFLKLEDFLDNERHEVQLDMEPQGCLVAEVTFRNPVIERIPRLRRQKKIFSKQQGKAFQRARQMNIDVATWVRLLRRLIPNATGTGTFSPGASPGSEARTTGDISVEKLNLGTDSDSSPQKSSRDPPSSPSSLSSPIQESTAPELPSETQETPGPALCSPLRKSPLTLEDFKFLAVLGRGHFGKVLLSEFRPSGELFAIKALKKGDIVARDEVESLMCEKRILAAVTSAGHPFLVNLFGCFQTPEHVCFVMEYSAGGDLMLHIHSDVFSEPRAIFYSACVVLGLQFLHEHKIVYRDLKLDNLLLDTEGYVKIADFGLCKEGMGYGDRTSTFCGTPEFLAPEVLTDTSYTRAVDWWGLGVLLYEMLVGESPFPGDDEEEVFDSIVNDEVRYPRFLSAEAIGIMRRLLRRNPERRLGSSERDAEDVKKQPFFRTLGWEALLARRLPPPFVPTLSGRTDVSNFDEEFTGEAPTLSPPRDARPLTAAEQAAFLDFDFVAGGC
Outline: as §1

[6] = biological target: T6, ULK2 (Homo sapiens, UniProt Q8IYT8)
T6 construct: purchased Reaction Biology Corp
T6 sequence (Q8IYT8 1-1036): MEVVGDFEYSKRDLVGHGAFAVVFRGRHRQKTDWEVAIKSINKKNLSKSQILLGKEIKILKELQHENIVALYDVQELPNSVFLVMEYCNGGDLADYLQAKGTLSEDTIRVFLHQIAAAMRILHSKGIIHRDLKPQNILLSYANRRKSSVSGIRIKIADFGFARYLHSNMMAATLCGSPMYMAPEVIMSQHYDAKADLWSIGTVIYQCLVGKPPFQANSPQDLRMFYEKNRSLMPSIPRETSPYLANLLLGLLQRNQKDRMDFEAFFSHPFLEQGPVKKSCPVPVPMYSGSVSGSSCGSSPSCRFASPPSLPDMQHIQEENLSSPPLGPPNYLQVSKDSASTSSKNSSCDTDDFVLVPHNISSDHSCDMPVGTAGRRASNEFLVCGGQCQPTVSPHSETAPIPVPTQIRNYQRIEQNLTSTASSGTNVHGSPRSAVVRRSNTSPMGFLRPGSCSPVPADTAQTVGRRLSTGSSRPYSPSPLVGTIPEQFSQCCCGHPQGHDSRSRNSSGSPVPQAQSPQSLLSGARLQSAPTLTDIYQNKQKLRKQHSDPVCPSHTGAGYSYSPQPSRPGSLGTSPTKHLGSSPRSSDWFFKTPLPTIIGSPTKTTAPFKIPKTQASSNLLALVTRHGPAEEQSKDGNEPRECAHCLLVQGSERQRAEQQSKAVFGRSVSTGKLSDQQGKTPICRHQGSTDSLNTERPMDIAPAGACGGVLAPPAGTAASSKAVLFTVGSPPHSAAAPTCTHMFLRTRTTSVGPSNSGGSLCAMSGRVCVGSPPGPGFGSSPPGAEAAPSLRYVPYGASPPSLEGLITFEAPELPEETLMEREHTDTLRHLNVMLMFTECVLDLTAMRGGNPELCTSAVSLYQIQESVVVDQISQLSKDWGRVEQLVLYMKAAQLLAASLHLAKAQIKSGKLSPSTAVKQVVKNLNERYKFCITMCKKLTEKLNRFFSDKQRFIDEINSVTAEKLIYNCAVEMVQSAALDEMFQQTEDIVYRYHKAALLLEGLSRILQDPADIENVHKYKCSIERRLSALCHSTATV
Outline: as §1

[7] = biological target: T7, Aurora A (Homo sapiens, UniProt O14965)
T7 construct: purchased Reaction Biology Corp
T7 sequence (O14965 1-403): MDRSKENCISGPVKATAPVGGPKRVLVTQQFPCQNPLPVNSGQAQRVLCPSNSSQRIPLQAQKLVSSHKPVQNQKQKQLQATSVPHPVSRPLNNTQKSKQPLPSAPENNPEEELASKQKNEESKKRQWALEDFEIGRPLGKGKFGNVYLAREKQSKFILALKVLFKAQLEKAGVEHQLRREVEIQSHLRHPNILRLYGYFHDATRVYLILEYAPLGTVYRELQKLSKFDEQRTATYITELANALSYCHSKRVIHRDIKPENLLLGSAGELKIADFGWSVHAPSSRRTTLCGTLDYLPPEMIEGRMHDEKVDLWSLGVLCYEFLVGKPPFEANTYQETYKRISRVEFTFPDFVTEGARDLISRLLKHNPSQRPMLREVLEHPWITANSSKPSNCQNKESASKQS
Outline: as §1

[8] = biological target: T8, TSSK2 (Homo sapiens, UniProt Q96PF2)
T8 construct: purchased Reaction Biology Corp
T8 sequence (Q96PF2 1-358): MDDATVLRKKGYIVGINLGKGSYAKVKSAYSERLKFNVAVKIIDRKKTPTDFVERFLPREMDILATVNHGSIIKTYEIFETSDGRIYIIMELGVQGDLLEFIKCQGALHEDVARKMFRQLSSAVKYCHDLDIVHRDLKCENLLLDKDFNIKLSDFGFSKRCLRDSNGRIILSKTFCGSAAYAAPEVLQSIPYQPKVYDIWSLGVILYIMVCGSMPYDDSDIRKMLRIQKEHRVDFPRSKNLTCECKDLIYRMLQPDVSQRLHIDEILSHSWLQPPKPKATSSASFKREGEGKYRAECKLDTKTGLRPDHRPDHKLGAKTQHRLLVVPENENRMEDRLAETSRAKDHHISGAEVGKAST
Outline: as §1

[9] = read-out: % Enzyme Activity (relative to DMSO controls) Run 1
[10] = read-out: % Enzyme Activity (relative to DMSO controls) Run 2

T1 sequence (Q9H2X6 whole entry): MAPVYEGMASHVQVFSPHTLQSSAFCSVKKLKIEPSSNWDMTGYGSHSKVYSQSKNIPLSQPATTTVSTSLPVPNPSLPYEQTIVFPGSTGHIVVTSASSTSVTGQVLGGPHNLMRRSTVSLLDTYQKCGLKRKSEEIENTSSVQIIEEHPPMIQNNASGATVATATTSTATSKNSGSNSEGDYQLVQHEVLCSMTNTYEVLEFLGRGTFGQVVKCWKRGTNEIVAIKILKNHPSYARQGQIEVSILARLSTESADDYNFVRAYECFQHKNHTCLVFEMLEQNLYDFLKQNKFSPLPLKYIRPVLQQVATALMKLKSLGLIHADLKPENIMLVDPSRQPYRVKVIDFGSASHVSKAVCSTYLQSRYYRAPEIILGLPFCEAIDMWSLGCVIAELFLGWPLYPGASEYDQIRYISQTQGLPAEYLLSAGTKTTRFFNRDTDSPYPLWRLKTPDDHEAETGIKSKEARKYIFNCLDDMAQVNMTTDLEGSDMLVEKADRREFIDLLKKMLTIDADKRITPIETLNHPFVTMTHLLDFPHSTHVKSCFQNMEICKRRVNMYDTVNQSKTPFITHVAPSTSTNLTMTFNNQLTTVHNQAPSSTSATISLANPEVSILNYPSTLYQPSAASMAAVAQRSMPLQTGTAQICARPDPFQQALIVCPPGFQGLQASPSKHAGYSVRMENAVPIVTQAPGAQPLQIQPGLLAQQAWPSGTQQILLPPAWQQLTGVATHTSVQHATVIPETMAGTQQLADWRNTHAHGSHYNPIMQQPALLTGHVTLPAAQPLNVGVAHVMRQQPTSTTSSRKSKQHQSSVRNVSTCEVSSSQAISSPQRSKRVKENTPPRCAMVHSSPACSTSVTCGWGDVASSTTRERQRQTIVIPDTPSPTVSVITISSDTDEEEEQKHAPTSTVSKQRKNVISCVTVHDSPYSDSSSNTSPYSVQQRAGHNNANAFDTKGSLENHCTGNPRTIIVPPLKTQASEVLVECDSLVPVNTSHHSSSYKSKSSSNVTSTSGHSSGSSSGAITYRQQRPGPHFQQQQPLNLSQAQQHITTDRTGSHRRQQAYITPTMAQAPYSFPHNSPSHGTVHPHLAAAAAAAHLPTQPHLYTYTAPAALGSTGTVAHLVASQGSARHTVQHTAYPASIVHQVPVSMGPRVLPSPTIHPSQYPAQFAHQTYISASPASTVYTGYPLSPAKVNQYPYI

## C=CC(=O)Nc1cccc(Nc2nc(Nc3ccc(OCCOC)c(F)c3)ncc2F)c1 [Compound 2]
[1]
  inhibition at 3 µM: 2.82%
[1]; [9]
  remaining activity at 3 µM: 95.8%
[1]; [10]
  remaining activity at 3 µM: 98.6%
[2]
  inhibition at 3 µM: -6.68%
[2]; [9]
  remaining activity at 3 µM: 106%
[2]; [10]
  remaining activity at 3 µM: 108%
[3]
  inhibition at 3 µM: 0.68%
[3]; [9]
  remaining activity at 3 µM: 98.3%
[3]; [10]
  remaining activity at 3 µM: 100%
[4]
  inhibition at 3 µM: 49.6%
[4]; [9]
  remaining activity at 3 µM: 50.2%
[4]; [10]
  remaining activity at 3 µM: 50.6%
[5]
  inhibition at 3 µM: 6.94%
[5]; [9]
  remaining activity at 3 µM: 93.8%
[5]; [10]
  remaining activity at 3 µM: 92.3%
[6]
  inhibition at 3 µM: -5.74%
[6]; [9]
  remaining activity at 3 µM: 102%
[6]; [10]
  remaining activity at 3 µM: 109%
[7]
  inhibition at 3 µM: 88.3%
[7]; [9]
  remaining activity at 3 µM: 12.3%
[7]; [10]
  remaining activity at 3 µM: 11%
[8]
  inhibition at 3 µM: 3.36%
[8]; [9]
  remaining activity at 3 µM: 97%
[8]; [10]
  remaining activity at 3 µM: 96.3%
